Measurements published in BindingDB's records for doi:10.7270/Q2PC30Z9 (Burnham Center For Chemical Genomics, 2012).

Target: 26S proteasome non-ATPase regulatory subunit 14 (Homo sapiens, UniProt O00487)
Assay: inhibition of proteasome subunit RPN11 – biochemical, fluorescence polarization, uHTS hits, confirmation (AID 602368)

Chain of 26S proteasome non-ATPase regulatory subunit 14 (O00487 whole entry): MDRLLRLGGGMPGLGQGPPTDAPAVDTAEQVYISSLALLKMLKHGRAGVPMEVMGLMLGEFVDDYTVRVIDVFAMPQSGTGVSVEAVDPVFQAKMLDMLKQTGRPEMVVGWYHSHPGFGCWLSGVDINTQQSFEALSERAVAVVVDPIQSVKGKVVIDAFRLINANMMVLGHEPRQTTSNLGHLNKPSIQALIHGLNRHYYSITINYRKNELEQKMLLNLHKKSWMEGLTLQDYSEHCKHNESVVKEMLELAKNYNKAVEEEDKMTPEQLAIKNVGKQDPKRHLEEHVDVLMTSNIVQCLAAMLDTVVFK

Row | SMILES | IC50
1 | O=C1N=C(Nc2ccc(Cl)cc2Cl)SC1=Cc1c[nH]c2ccccc12 | 36.5 µM
2 | COC1=CC([N+](=O)[O-])=CC(/C=N/NC(=O)c2cc(-c3ccccc3)nc3ccccc23)C1=O (stereo not given) | 22.3 µM
3 | COC1=CC(=Cc2c(C)[nH]n(-c3cccc(Br)c3)c2=O)C=C(OC)C1=O | 23.1 µM
4 | CN(CCO)c1ccc(CN=Nc2ccc([N+](=O)[O-])cc2S(=O)(=O)Nc2ccccc2C(=O)O)cc1 | 37 µM
5 | O=c1c(Cl)c(N=NCc2ccc(Br)cc2)cnn1-c1ccccc1 | 21.2 µM
6 | CCOC(=O)C1C(=O)C(=Cc2ccc(-c3ccccc3C(=O)O)o2)SC1=Nc1ccc(OC)cc1 (stereo not given) | 17.8 µM
7 | CC[n+]1c(CC=Nc2ccccc2)oc2ccc(OC)cc21 | 23.2 µM
8 | O=C1C=CC([N+](=O)[O-])=CC1C=NN=C1NS(=O)(=O)c2ccccc21 (stereo not given) | 34.9 µM
9 | CCN(CC)CCOC(=O)c1ccc(N=CC(C#N)c2nc(-c3ccc4c(c3)OCO4)cs2)cc1 (stereo not given) [2-(diethylamino)ethyl 4-[[(Z)-2-[4-(1,3-benzodioxol-5-yl)-1,3-thiazol-2-yl]-2-cyano-ethenyl]amino]benzoate] | 31.4 µM
10 | Oc1csc(=S)n1N=Cc1ccc(Cl)s1 [3-[(5-chlorothiophen-2-yl)methylideneamino]-2-sulfanylidene-1,3-thiazolidin-4-one] | 59.4 µM
11 | CC(=O)C1C(=O)OC(=CC=Cc2ccccc2)C1=O (stereo not given) [3-acetyl-5-cinnamylidene-4-hydroxy-2-furanone] | 35.2 µM
12 | C=c1[nH]n(-c2nnc(C)c(=O)[nH]2)c(=O)c1=Cc1ccc(N(CC)CC)cc1 [3-{4-[1-(4-Diethylamino-phenyl)-meth-(Z)-ylidene]-3-methyl-5-oxo-4,5-dihydro-pyrazol-1-yl}-6-methyl-4H -[1,2,4]triazin-5-one] | 49.4 µM
13 | NS(=O)(=O)c1ccc(N=CCC(=O)c2ccc3ccccc3c2)cc1 [4-(3-Naphthalen-2-yl-3-oxo-propenylamino)-benzenesulfonamide] | 28.6 µM
14 | CSc1nsc(CC=Nc2ccc(C(=O)O)cc2)c1C#N [4-({2-[4-cyano-3-(methylsulfanyl)-5-isothiazolyl]vinyl}amino)benzenecarboxylic acid] | 24.8 µM
15 | CC1(C)CC(=O)C(=CNCC2CCN(C(=O)Cc3ccccc3)CC2)C(=O)C1 [5,5-dimethyl-2-[[[1-(2-phenylacetyl)piperidin-4-yl]methylamino]methylidene]cyclohexane-1,3-dione] | > 100 µM
16 | CC(c1sc(S)nc1O)c1sc(S)nc1O [5-[1-(4-oxidanylidene-2-sulfanylidene-1,3-thiazolidin-5-yl)ethyl]-2-sulfanylidene-1,3-thiazolidin-4-one] | 45.4 µM
17 | CC1=NC(=O)NC(c2ccc(N3CCOCC3)cc2)C1C(=O)c1ccccc1 (stereo not given) [5-benzoyl-6-methyl-4-[4-(4-morpholinyl)phenyl]-3,4-dihydro-1H-pyrimidin-2-one] | 17.1 µM
18 | COC1=CC([N+](=O)[O-])=CC(/C=N/NC(=O)c2cncc(Br)c2)C1=O (stereo not given) [5-bromo-N'-[(E)-(5-methoxy-3-nitro-6-oxo-1-cyclohexa-2,4-dienylidene)methyl]-3-pyridinecarbohydrazide] | 49.5 µM

Row | SMILES | IC50
19 | Cc1[nH]n(-c2ccccc2)c(=O)c1C=C1NC(=S)NC1=O [5-methyl-4-[(Z)-(5-oxo-2-sulfanylideneimidazolidin-4-ylidene)methyl]-2-phenyl-4H-pyrazol-3-one] | 32.4 µM
20 | O=C1c2ccccc2SC1/C=N/c1cc([N+](=O)[O-])ccc1O (stereo not given) [(2Z)-2-[[(5-nitro-2-oxidanyl-phenyl)amino]methylidene]-1-benzothiophen-3-one] | 3.28 µM
21 | Cc1[nH]c2ccccc2c1/C=C1\N=C(c2ccccc2)OC1=O [(4Z)-4-[(2-methyl-1H-indol-3-yl)methylidene]-2-phenyl-5-oxazolone] | 4.18 µM
22 | C=CCN1C(=O)C(/C=N/c2cccc([N+](=O)[O-])c2)C(=O)N(CCCC)C1=O (stereo not given) [MLS000543529] | 34 µM
23 | O=[N+]([O-])c1ccc(N=NCc2c[nH]c3ccccc23)cc1 [MLS000573812] | 1.77 µM
24 | O=[N+]([O-])c1ccc(N=NCc2ccc[nH]2)cc1 [MLS000595102] | 8.96 µM
25 | COc1cc2c3c(c1)C(C)=CC(C)(C)N3C(=O)C2=O [MLS000688351] | 8.23 µM
26 | C=C(C=C(C)c1sc(S)nc1O)c1sc(S)nc1O [MLS000723803] | 43.6 µM
27 | C=c1[nH]c2ccc(C)cc2c1=Cc1c(N)n2oc(C)cc2nc1=O [MLS000730959] | 33.3 µM
28 | O=C(N/N=C/C1C=C([N+](=O)[O-])C=CC1=O)c1cc(-c2ccccc2)nc2ccccc12 (stereo not given) [N'-[(E)-(3-nitro-6-oxo-1-cyclohexa-2,4-dienylidene)methyl]-2-phenyl-4-quinolinecarbohydrazide] | 14.8 µM
29 | COc1cc(C=c2[nH]c3n(c2=O)CCCCC=3)ccc1O [SMR000149996] | 14.8 µM
30 | O=[N+]([O-])c1ccc(N=NCc2cccn2-c2ccccc2)nc1 [SMR000161089] | 23.5 µM
31 | COc1cc(C=CC(=O)C2C(=O)NC(=O)N(CCc3ccccc3)C2=O)ccc1O (stereo not given) [SMR000221203] | 29.2 µM
32 | Cc1cc(=O)[nH]c(N=NCc2c(O)n(-c3ccccc3)c(=O)c3ccccc23)n1 [SMR000221270] | 18.4 µM
33 | O=C(N/N=C/C1C=C(Cl)C=C([N+](=O)[O-])C1=O)c1ccccc1NS(=O)(=O)c1cccs1 (stereo not given) [SMR000364876] | 10.4 µM
34 | CCN(CC)CCOC(=O)c1ccc(N=CC(C#N)c2nc(-c3ccc(OC)c(OC)c3)cs2)cc1 (stereo not given) [SMR000434079] | 23.2 µM
35 | CCCCCCCCCCCC1N=C(N)N=C(CCCO)C1C(=O)OC (stereo not given) [SMR001565729] | 19.9 µM
